Like-named read-outs stand apart in the source and are kept apart here.
Legend:
B. subtilis = assay: MIC, antimicrobial activity assay; type: cell-based, Bacillus subtilis (ATCC 6633); conditions: Bacillus subtilis
E. coli = assay: MIC, antimicrobial activity assay; type: cell-based, Escherichia coli (ATCC 8739); conditions: Escherichia coli
P. aeruginosa = assay: MIC, antimicrobial activity assay; type: cell-based, Pseudomonas aeruginosa (ATCC 9027); conditions: Pseudomonas aeruginosa
M. smegmatis = assay: microbe, parasite or virus in culture; type: cell-based, Mycobacterium smegmatis (mc2155, ATCC 700084); conditions: Mycolicibacterium smegmatis, 72 h, read-out: Minimal Inhibitory Concentration (MIC) M. smegmatis
C. albicans = assay: MIC, antifungal activity assay; type: cell-based, Candida albicans (DSM 10697); conditions: Candida albicans; Table 1 first screening; 35 °C, 24 h; read-out: Minimal Inhibitory Concentration (MIC) C. albicans
B. cereus = assay: MIC, antimicrobial activity assay; type: cell-based; conditions: Bacillus cereus; Table 4, Gram-positive
[1] = system: B. subtilis (Nisin-resistant); assay: MIC, antimicrobial activity assay; type: cell-based, nisin-resistant B. subtilis (DSMZ 347); conditions: Bacillus subtilis, read-out: MIC B. subtilis (Nisin-resistant)
C. perfringens = assay: microbe, parasite or virus in culture; type: cell-based, Clostridium perfringens (ATCC 13124); conditions: Clostridium perfringens, read-out: MIC C. perfringens
A. baumannii = assay: MIC, antimicrobial activity assay; type: cell-based, Acinetobacter baumannii (CIP 110431); conditions: Acinetobacter baumannii; Table 4, Gram-negative
C. farmer = assay: MIC, antimicrobial activity assay; type: cell-based, Citrobacter farmeri (ATCC 51633); conditions: Citrobacter farmeri; Table 4, Gram-negative
K. pneumonia = assay: MIC, antimicrobial activity assay; type: cell-based, Klebsiella pneumoniae (DSMZ 26371); conditions: Klebsiella pneumoniae; Table 4, Gram-negative
[2] = system: P. aeruginosa (Quinolone-resistant); assay: MIC, antimicrobial activity assay; type: cell-based; conditions: Pseudomonas aeruginosa, read-out: MIC P. aeruginosa (Quinolone-resistant)
V. diabolicus = assay: MIC, antimicrobial activity assay; type: cell-based; conditions: Vibrio diabolicus; Table 4, Gram-negative
V. alginolyticus [3] = assay: MIC, antimicrobial activity assay; type: cell-based, Vibrio alginolyticus (DSM 2171); conditions: Vibrio alginolyticus; Table 4, Gram-negative
S. aureus = assay: Bacterial membrane permeabilization assay (propidium iodide); type: cell-based, Staphylococcus aureus; conditions: for membrane permeabilization at 4-times MIC, S. aureus: 4-times their MIC; for maximal membrane permeabilization, S. aureus: 120 min exposure to 100 µM, CTAB 300 µM = 100%
Description: Membrane permeabilization by berberine derivatives was evaluated using the cell-impermeable DNA/RNA probe propidium iodide as previously explained. Logarithmic growing bacterial suspensions were prepared from overnight bacterial suspension by 1 in 10 dilution. After 3 h incubation at 37 °C, 200 rpm, bacterial suspensions were centrifuged for 5 min at 3000 rpm. Cell pellets were then resuspended in sterile PBS at about 10^9 cells/mL. Propidium iodide (Sigma Aldrich) was then added to the suspension at a final concentration of 60 µM. 100 µL of this suspension were then transferred into 96-well black plates (Dominique Dutscher) and exposed to increasing concentrations of berberine’s derivative (from 0 to 100 µM, 1:2 dilution). […] All steps of the assay were performed in aerobic condition except for H. pylori which was done in microaerobic condition generated with GasPak unit (Sigma Aldrich). Bacteria were incubated at 37 °C and the kinetics of fluorescence variations (excitation at 530 nm and emission at 590 nm) were then recorded over time using a Synergy Mx microplate reader (Biotek). Cetyl trimethylammonium bromide (CTAB) at 300 µM was used as positive control giving 100% permeabilization. Results were expressed in % of permeabilization. All experiments were done in triplicate.

[4] = system: bacterial DNA extracted from B. subtilis; assay: DNA fragmentation assay; conditions: 6 h at 37 °C, 4-times their MIC
V. alginolyticus [5] = assay: Macromolecule synthesis inhibition assay by fluorescent microscopy (morphological changes); conditions: 4 × MIC, 2 h, 37 °C; for Observed Morphology: DNA, V. alginolyticus: DAPI; for Observed Morphology: cell membrane, V. alginolyticus: FM4-64FX; for Known/Possible Target, V. alginolyticus: inferred from morphology
[6] = Table 1 first screening, read-out: Minimal Inhibitory Concentration (MIC) B. subtilis
[7] = Table 4, Gram-positive, read-out: MIC B. subtilis
[8] = Table 1 first screening, read-out: Minimal Inhibitory Concentration (MIC) E. coli
[9] = Table 4, Gram-negative, read-out: MIC E. coli
[10] = Table 1 first screening, read-out: Minimal Inhibitory Concentration (MIC) P. aeruginosa
[11] = Table 4, Gram-negative, read-out: MIC P. aeruginosa

Question: How did the MIC (B. subtilis; [6]) turn out when `COc1cc(C(=O)Cc2c3[n+](cc4c(OC)c(OC)ccc24)CCc2cc4c(cc2-3)OCO4)cc(OC)c1OC(=O)c1ccccc1` [Compound 16, 4-[2-(Berberin-13-yl)acetyl]-2,6-dimethoxyphenyl Benzoate] was run?
Answer: Its MIC is 25 µM.

Question: And the MIC (B. subtilis; [7])?
Answer: Its MIC is 25 µM.

Question: What about the MIC (E. coli; [8]) of the same compound?
Answer: Its MIC is > 100 µM.

Question: And the MIC (E. coli; [9])?
Answer: Its MIC is > 100 µM.

Question: What about the MIC (P. aeruginosa; [10]) of the same compound?
Answer: Its MIC is > 100 µM.

Question: And the MIC (P. aeruginosa; [11])?
Answer: The MIC was > 100 µM.

Question: And the MIC (M. smegmatis)?
Answer: Its MIC is 50 µM.

Question: What about the MIC (C. albicans) of the same compound?
Answer: Its MIC is > 100 µM.

Question: What about the MIC (B. cereus) of the same compound?
Answer: The MIC was 12.5 µM.

Question: And the MIC [1]?
Answer: Its MIC is 12.5 µM.

Question: What about the MIC (C. perfringens) of the same compound?
Answer: The MIC was 25 µM.

Question: And the MIC (A. baumannii)?
Answer: The MIC was > 100 µM.

Question: What about the MIC (C. farmer) of the same compound?
Answer: Its MIC is > 100 µM.

Question: And the MIC (K. pneumonia)?
Answer: Its MIC is > 100 µM.

Question: What about the MIC [2] of the same compound?
Answer: Its MIC is > 100 µM.

Question: And the MIC (V. diabolicus)?
Answer: Its MIC is > 100 µM.

Question: What about the MIC (V. alginolyticus [3]) of the same compound?
Answer: The MIC was 3.12 µM.

Question: What about the “membrane permeabilization at 4-times MIC, S. aureus” value (S. aureus) of the same compound?
Answer: The value was “low to no membrane permeabilization”.

Question: What about the “maximal membrane permeabilization, S. aureus” value (S. aureus) of the same compound?
Answer: Its value is 80–100%.

Question: What about the “DNA fragmentation, B. subtilis DNA” value [4] of the same compound?
Answer: The value was “did not caused DNA fragmentation”.

Question: And the “Observed Morphology: cell elongation, V. alginolyticus” value (V. alginolyticus [5])?
Answer: The value was 2–4 times compared to control.

Question: What about the “Observed Morphology: cells connected, V. alginolyticus” value (V. alginolyticus [5]) of the same compound?
Answer: The value was 2–4 cells connected.

Question: And the “Observed Morphology: DNA, V. alginolyticus” value (V. alginolyticus [5])?
Answer: The value was “Decondensed DNA spanning cell”.

Question: And the “Observed Morphology: cell membrane, V. alginolyticus” value (V. alginolyticus [5])?
Answer: Its value is “Cell membrane thickening”.

Question: And the “Known/Possible Target, V. alginolyticus” value (V. alginolyticus [5])?
Answer: The value was “Cell wall biosynthesis”.

Question: With `COc1ccc(C(=O)/C=C/c2ccc(Cc3c4[n+](cc5c(OC)c(OC)ccc35)CCc3cc5c(cc3-4)OCO5)cc2)c(O)c1` [Compound 25, (2E)-3-{4-[(Berberin-13-yl)methyl]phenyl}-1-(2-hydroxy-4-methoxyphenyl)prop-2-en-1-one] as the compound, how does the MIC (B. subtilis; [6]) read?
Answer: Its MIC is 6.25 µM.

Question: What about the MIC (B. subtilis; [7]) of the same compound?
Answer: The MIC was 6.25 µM.

Question: What about the MIC (E. coli; [8]) of the same compound?
Answer: The MIC was > 100 µM.

Question: And the MIC (E. coli; [9])?
Answer: The MIC was > 100 µM.

Question: And the MIC (P. aeruginosa; [10])?
Answer: Its MIC is > 100 µM.

Question: What about the MIC (P. aeruginosa; [11]) of the same compound?
Answer: Its MIC is > 100 µM.

Question: What about the MIC (M. smegmatis) of the same compound?
Answer: The MIC was 25 µM.

Question: And the MIC (C. albicans)?
Answer: The MIC was 12.5 µM.

Question: What about the MIC (B. cereus) of the same compound?
Answer: The MIC was 6.25 µM.

Question: And the MIC [1]?
Answer: Its MIC is 6.25 µM.

Question: What about the MIC (C. perfringens) of the same compound?
Answer: The MIC was 25 µM.

Question: What about the MIC (A. baumannii) of the same compound?
Answer: The MIC was > 100 µM.

Question: And the MIC (C. farmer)?
Answer: The MIC was > 100 µM.

Question: And the MIC (K. pneumonia)?
Answer: The MIC was > 100 µM.

Question: What about the MIC [2] of the same compound?
Answer: Its MIC is > 100 µM.

Question: And the MIC (V. diabolicus)?
Answer: Its MIC is > 100 µM.

Question: What about the MIC (V. alginolyticus [3]) of the same compound?
Answer: The MIC was 3.12 µM.

Question: And the “membrane permeabilization at 4-times MIC, S. aureus” value (S. aureus)?
Answer: The value was “low to no membrane permeabilization”.

Question: What about the “maximal membrane permeabilization, S. aureus” value (S. aureus) of the same compound?
Answer: Its value is 80–100%.

Question: What about the “DNA fragmentation, B. subtilis DNA” value [4] of the same compound?
Answer: The value was “did not caused DNA fragmentation”.

Question: What about the “Observed Morphology: cell elongation, V. alginolyticus” value (V. alginolyticus [5]) of the same compound?
Answer: Its value is 2–7 times compared to control.

Question: What about the “Observed Morphology: cells connected, V. alginolyticus” value (V. alginolyticus [5]) of the same compound?
Answer: The value was 1–2 cells connected.

Question: And the “Observed Morphology: DNA, V. alginolyticus” value (V. alginolyticus [5])?
Answer: Its value is “Condensed DNA spanning the cell”.

Question: What about the “Observed Morphology: cell membrane, V. alginolyticus” value (V. alginolyticus [5]) of the same compound?
Answer: Its value is “Cell membrane pigmentation”.

Question: What about the “Known/Possible Target, V. alginolyticus” value (V. alginolyticus [5]) of the same compound?
Answer: Its value is “RNA biosynthesis”.
